# According to PubChem BioAssay (NCI):
#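 Grown in 96-well plates, cells were treated for 48 hours with each compound at five concentrations. Insufficient inhibition: endpoint recorded as highest concentration tested. GI50 marks 50% less growth. At the TGI there is no net growth.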
# Columns and labels:
# Assay in all cases: growth of human tumour cells (NCI), 48 h
# M19-MEL melanoma = tested on: M19-MEL melanoma
# SNB-78 CNS = tested on: SNB-78 CNS
# LXFL 529 NSCLC = tested on: LXFL 529 NSCLC
# KM20L2 colon = tested on: KM20L2 colon
# DMS 114 small cell lung = tested on: DMS 114 small cell lung
# DLD-1 colon = tested on: DLD-1 colon
# XF 498 CNS = tested on: XF 498 CNS
# HOP-18 NSCLC = tested on: HOP-18 NSCLC
# RXF-631 renal = tested on: RXF-631 renal
SMILES,TGI (M19-MEL melanoma),TGI (SNB-78 CNS),TGI (LXFL 529 NSCLC),TGI (KM20L2 colon),TGI (DMS 114 small cell lung),TGI (DLD-1 colon),TGI (XF 498 CNS),TGI (HOP-18 NSCLC),GI50 (M19-MEL melanoma),TGI (RXF-631 renal)
CC(C)C(Sc1nc(-c2ccccc2)c(-c2ccccc2)[nH]1)C(=O)N/N=C/c1ccc(Cl)cc1 (stereo unspecified),34.6 µM,> 100 µM,82.8 µM,46.2 µM,71.5 µM,> 100 µM,–,–,–,–
COC(=O)C1=C(C(=O)OC)C23CC4CCC2(C(=O)C1O3)C4(C)C (stereo unspecified),> 100 µM,–,> 100 µM,> 100 µM,–,> 100 µM,> 100 µM,> 100 µM,–,–
Cc1ccccc1NC(=O)C(=O)C(C1OC(=O)c2ccccc21)[N+](=O)[O-] (stereo unspecified),> 100 µM,> 100 µM,> 100 µM,> 100 µM,> 100 µM,> 100 µM,> 100 µM,–,–,–
COc1ccc(/C=C2\C(=O)N(C(=O)c3ccc(NC(C)=O)cc3)N=C2C)cc1OC,> 100 µM,> 100 µM,–,–,> 100 µM,> 100 µM,> 100 µM,> 100 µM,–,–
CC(C)NC1CCCCC2c3ccccc3C12O (stereo unspecified),> 100 µM,> 100 µM,> 100 µM,> 100 µM,> 100 µM,–,> 100 µM,> 100 µM,–,–
CCO/C(O)=c1/s/c(=C2/SC(=S)N(c3ccc(C)cc3)C2=O)n(-c2ccccc2)c1=N,> 100 µM,–,> 100 µM,–,–,–,–,> 100 µM,–,–
[N-]=[N+]=NC1C(Cl)C(=O)NC(=O)N1[C@H]1C[C@H](O)[C@@H](CO)O1 (stereo partly specified),> 100 µM,> 100 µM,> 100 µM,> 100 µM,> 100 µM,> 100 µM,> 100 µM,–,52.1 µM,> 100 µM
O=NN(CC1(O)OCC(O)C(O)C1O)C(Cc1c[nH]c2ccccc12)C(=O)O (stereo unspecified),> 100 µM,> 100 µM,–,> 100 µM,> 100 µM,> 100 µM,> 100 µM,–,–,> 100 µM
Cc1cnoc1/N=C1\C=C(Nc2oncc2C)C(=O)c2ccccc21,–,> 100 µM,> 100 µM,> 100 µM,> 100 µM,> 100 µM,> 100 µM,> 100 µM,–,> 100 µM
Cc1c2ccccc2c(=O)n2c(-c3ccccn3)cccc12,> 100 µM,> 100 µM,–,> 100 µM,> 100 µM,> 100 µM,> 100 µM,> 100 µM,–,–
